Data published in PubChem BioAssay AID2060626 (Molecular Pharmacology Branch, DTP, NCI, 2025).
Where “and” joins values, the source holds several entries; their conditions need not be identical. Equal entries are not always repeated. Blank lines part the entries; values can stand above or below the compound they belong to.

System: 168753-222-R-J1-PDC complex spheroid viability
Assay: Anticancer human tumor 168753-222-R-J1-PDC patient-derived bladder carcinoma cell line growth inhibition [CLK]
Conditions: for viability, T/C: stronger effect = lower value
Text: A high-throughput screen of multi-cell type tumor spheroids was designed to identify active combinations of […] and targeted small molecules. Complex spheroids include a stromal component modeled by human endothelial cells (HUVEC) and fibroblasts modeled by human mesenchymal stem cells (MSCs). The concentration ranges selected for each drug and investigational agent were based upon clinically achievable concentrations if the clinical Cmax of the agent was known.
Compounds. The drugs and investigational agents: cirtuvivint (SM08502; NSC835563), CC-671 (NSC850746), vemurafenib (NSC761431), tapotoclax (NSC804041), sotorasib (NSC818433), adagrasib (NSC831453), MRTX-1133 (NSC836407), BAY2416964 (NSC825713), copanlisib (NSC816437), inavolisib (NSC800729), abemaciclib (NSC768073), osimertinib (NSC779217), entinostat (NSC756642), eltanexor (KPT-8602, NSC794443), venetoclax (NSC766270), ceralasertib (NSC777638), bortezomib (NSC756655), olaparib (NSC753686), talazoparib (NSC767125), alisertib (NSC759677), peposertib (NSC802822), gemcitabine (NSC613327), 5-fluorouracil (NSC19893), SN-38 (NSC673596), oxaliplatin (NSC266046), paclitaxel (NSC125973), and doxorubicin (NSC123127), were obtained from the National Cancer Institute (NCI) Developmental Therapeutics Program Chemical Repository. The FDA-approved anticancer drug set is available from the Developmental Therapeutics Program at https://dtp.cancer.gov/organization/dscb/obtaining/available plates.htm. […] The stock solutions were prepared in dimethyl sulfoxide (DMSO, Sigma-Aldrich, St. Louis, MO, cat. D2650), except for the platinum complexes which were prepared in saline (Quality Biological, Gaithersburg, MD, cat. 114-055-101), at 800-fold the tested concentration and stored at -70 degrees C prior to their use. All drugs and investigational agents were tested over a range starting from a high concentration at or near the clinical Cmax and decreasing in half-log increments. If the clinical Cmax for an agent had not been determined, the highest concentration tested was 10 microM.
Cell Culture. All cells were maintained in an incubator at 37 degrees C and 5% CO2 with 95% humidity. The PDC lines were cultured according to standard operating procedures established by the NCI PDMR. Briefly, all PDCs were thawed and cultured in Matrigel-coated flasks prepared with a working solution of 1X Ham's F-12 nutrient mix, without supplementation (Invitrogen, Waltham, MA, cat. 11765054), 100 U/mL penicillin-streptomycin (Invitrogen, cat. 15140122), and 2.5% Matrigel (Corning Inc., Corning, NY, cat. 354248) for the first three passages. The 947758-054-R-J2-PDC line was cultured in 6B/Colon 1A media, which includes advanced DMEM/F-12 (Thermo Fisher Scientific, cat. 12634028), 10 mM HEPES (Thermo Fisher Scientific, cat. 15630080), 1X GlutaMAX supplement (Thermo Fisher Scientific, cat. 35050061), 0.1 mg/mL primocin (InvivoGen, cat. ant-pm-2), 10% defined fetal bovine serum, heat inactivated (HyClone Laboratories Inc., cat. SH30070.03HI), 1.25 mM N-Acetyl-L-cysteine (Sigma-Aldrich, cat. A9165), 10 mM nicotinamide (Sigma-Aldrich, cat. N0636), 1X B-27 supplement (Thermo Fisher Scientific, cat. 17504044), 1X N-2 supplement (Thermo Fisher Scientific, cat. 17502048), and 10 microM Y-27632 dihydrochloride (Tocris Bioscience, cat. 1254). The 876862-298-R-J1-PDC was cultured in 6E media, which includes all 6B/Colon 1A media components plus 50% L-WRN conditioned media (ATCC, cat. CRL-3276), 50 ng/mL recombinant human EGF recombinant protein (hEGF; Thermo Fisher Scientific, cat. PHG0311), 10 ng/mL recombinant human fibroblast growth factor 10 (hGFG-10; PeproTech, cat. 100-26), 1 ng/mL recombinant human fibroblast growth factor 2 (hFGF-2; PeproTech, cat. 100-18B), and 1 µM prostaglandin E2 (PGE2; Tocris, cat. 2296). The 227483-062-R1-J1-PDC line was cultured in Panc media, containing all 6E components except hFGF-2, with the addition of 500 nM SB-431542 (Selleckchem, cat. S1067) and 10 nM gastrin (Tocris, cat. 3006). […]

[1] = curve of first compound, second compound 0.0316 µM
[2] = curve of first compound, second compound 0.1 µM
[3] = curve of first compound, second compound 0.316 µM
[4] = curve of first compound, second compound 1 µM
[5] = curve of first compound, second compound 3.16 µM
[6] = curve of first compound, second compound 10 µM
[7] = second compound 0.0316 µM, first compound 0.0316 µM
[8] = second compound 0.0316 µM, first compound 0.1 µM
[9] = second compound 0.0316 µM, first compound 0.316 µM
[10] = second compound 0.0316 µM, first compound 1 µM
[11] = second compound 0.0316 µM, first compound 3.16 µM
[12] = second compound 0.0316 µM, first compound 10 µM
[13] = second compound 0.1 µM, first compound 0.0316 µM
[14] = second compound 0.1 µM, first compound 0.1 µM
[15] = second compound 0.1 µM, first compound 0.316 µM
[16] = second compound 0.1 µM, first compound 1 µM
[17] = second compound 0.1 µM, first compound 3.16 µM
[18] = second compound 0.1 µM, first compound 10 µM
[19] = second compound 0.316 µM, first compound 0.0316 µM
[20] = second compound 0.316 µM, first compound 0.1 µM
[21] = second compound 0.316 µM, first compound 0.316 µM
[22] = second compound 0.316 µM, first compound 1 µM
[23] = second compound 0.316 µM, first compound 3.16 µM
[24] = second compound 0.316 µM, first compound 10 µM
[25] = second compound 1 µM, first compound 0.0316 µM
[26] = second compound 1 µM, first compound 0.1 µM
[27] = second compound 1 µM, first compound 0.316 µM
[28] = second compound 1 µM, first compound 1 µM
[29] = second compound 1 µM, first compound 3.16 µM
[30] = second compound 1 µM, first compound 10 µM
[31] = second compound 3.16 µM, first compound 0.0316 µM
[32] = second compound 3.16 µM, first compound 0.1 µM
[33] = second compound 3.16 µM, first compound 0.316 µM
[34] = second compound 3.16 µM, first compound 1 µM
[35] = second compound 3.16 µM, first compound 3.16 µM
[36] = second compound 3.16 µM, first compound 10 µM
[37] = second compound 10 µM, first compound 0.0316 µM
[38] = second compound 10 µM, first compound 0.1 µM
[39] = second compound 10 µM, first compound 0.316 µM
[40] = second compound 10 µM, first compound 1 µM
[41] = second compound 10 µM, first compound 3.16 µM
[42] = second compound 10 µM, first compound 10 µM
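Note: viability measured after seven days of drug exposure.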
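Throughout, for viability, T/C: luminescence signal used as surrogate for viable cell amount; 100% = DMSO vehicle control wells.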

- IC50 (curve of compound): > 10000 nM and 4650 nM
Structure (SMILES): C=C(F)C(=O)N1CCN(c2nc(OCC3CCCN3C)nc3c2CCN(c2cccc4cccc(Cl)c24)C3)CC1CC#N (stereo not drawn)
- viability, T/C (compound 0.0316 µM): 99.3% and 97.7%
- viability, T/C (compound 0.1 µM): 93.6% and 102%
- viability, T/C (compound 0.316 µM): 91.3% and 87.2%
- viability, T/C (compound 1 µM): 95.6% and 87.8%
- viability, T/C (compound 3.16 µM): 93.2% and 67.9%
- viability, T/C (compound 10 µM): 70.9% and 16.5%

- IC50 (curve of compound): > 10000 nM
Structure (SMILES): C=CC(=O)N1CCN(c2nc(=O)n(-c3c(C)ccnc3C(C)C)c3nc(-c4c(O)cccc4F)c(F)cc23)C(C)C1 (stereo not drawn)
- viability, T/C (compound 0.0316 µM): 91% and 86.6%
- viability, T/C (compound 0.1 µM): 111% and 92.8%
- viability, T/C (compound 0.316 µM): 101% and 92.3%
- viability, T/C (compound 1 µM): 110% and 103%
- viability, T/C (compound 3.16 µM): 106% and 121%
- viability, T/C (compound 10 µM): 103% and 74.9%

- IC50 (curve of compound): > 10000 nM
Structure (SMILES): CC(CO)NC(=O)c1cc(-c2ccc(Cl)cc2)nn(-c2cnn(C)c2)c1=O (stereo not drawn)
- viability, T/C (compound 0.0316 µM): 105% and 101%
- viability, T/C (compound 0.1 µM): 105% and 90.6%
- viability, T/C (compound 0.316 µM): 94.4% and 95.7%
- viability, T/C (compound 1 µM): 94.6% and 100%
- viability, T/C (compound 3.16 µM): 92.7% and 107%
- viability, T/C (compound 10 µM): 89.6% and 82.1%

The remaining lines, values behind:

Structure (SMILES): COc1cccc2c1C(=O)c1c(O)c3c(c(O)c1C2=O)CC(O)(C(=O)CO)CC3OC1CC(N)C(O)C(C)O1 (stereo not drawn) + CNC(=O)c1ccc(Nc2nc(OC3CCCC3)c3c(-c4ccc5nc(C)oc5c4)c[nH]c3n2)c(OC)c1
- IC50 [1]: 291 nM
- IC50 [2]: 266 nM
- IC50 [3]: 141 nM
- IC50 [4]: < 31.6 nM
- IC50 [5]: < 31.6 nM
- IC50 [6]: < 31.6 nM
- viability, T/C [7]: 83.8%
- viability, T/C [8]: 73.1%
- viability, T/C [9]: 50%
- viability, T/C [10]: 14.6%
- viability, T/C [11]: 13.7%
- viability, T/C [12]: 0.12%
- viability, T/C [13]: 94.5%
- viability, T/C [14]: 72.3%
- viability, T/C [15]: 49.8%
- viability, T/C [16]: 14.9%
- viability, T/C [17]: 15.6%
- viability, T/C [18]: 0.1%
- viability, T/C [19]: 71.9%
- viability, T/C [20]: 57.7%
- viability, T/C [21]: 33.1%
- viability, T/C [22]: 14.1%
- viability, T/C [23]: 8%
- viability, T/C [24]: 0.12%
- viability, T/C [25]: 30.2%
- viability, T/C [26]: 18.5%
- viability, T/C [27]: 15.2%
- viability, T/C [28]: 14.1%
- viability, T/C [29]: 6.77%
- viability, T/C [30]: 0.13%
- viability, T/C [31]: 18.4%
- viability, T/C [32]: 17.9%
- viability, T/C [33]: 13.3%
- viability, T/C [34]: 12.1%
- viability, T/C [35]: 2.89%
- viability, T/C [36]: 0.14%
- viability, T/C [37]: 16%
- viability, T/C [38]: 16%
- viability, T/C [39]: 12.1%
- viability, T/C [40]: 11.2%
- viability, T/C [41]: 0.71%
- viability, T/C [42]: 0.24%

Structure (SMILES): C=CC(=O)Nc1cc(Nc2nccc(-c3cn(C)c4ccccc34)n2)c(OC)cc1N(C)CCN(C)C
- viability, T/C (compound 0.000949 µM): 111% and 100%
- viability, T/C (compound 0.003 µM): 108% and 99.8%
- viability, T/C (compound 0.00949 µM): 97.8% and 98.2%
- viability, T/C (compound 0.03 µM): 98% and 106%
- viability, T/C (compound 0.0949 µM): 103% and 106%
- viability, T/C (compound 0.3 µM): 89.4% and 103%
- IC50 (curve of compound): > 300 nM

Structure (SMILES): CCN1CCN(Cc2ccc(Nc3ncc(F)c(-c4cc(F)c5nc(C)n(C(C)C)c5c4)n3)nc2)CC1
- viability, T/C (compound 0.00316 µM): 97.4% and 95.4%
- viability, T/C (compound 0.01 µM): 80.3% and 94%
- viability, T/C (compound 0.0316 µM): 37.7% and 78.4%
- viability, T/C (compound 0.1 µM): 44.1% and 77.1%
- viability, T/C (compound 0.316 µM): 25.1% and 68.1%
- viability, T/C (compound 1 µM): 36.4% and 64.2%

Structure (SMILES): CC(Nc1ccc2c(c1)OCCn1cc(N3C(=O)OCC3C(F)F)nc1-2)C(N)=O (stereo not drawn) + CN1CCN(c2cc(C(=O)Nc3cc4cc(-c5cnn(C)c5)ccc4cn3)ccn2)CC1
- IC50 [1]: 65.7 nM
- IC50 [2]: < 31.6 nM
- IC50 [3]: < 31.6 nM
- IC50 [4]: < 31.6 nM
- IC50 [5]: < 31.6 nM
- IC50 [6]: < 31.6 nM
- viability, T/C [7]: 72.8%
- viability, T/C [8]: 37%
- viability, T/C [9]: 15%
- viability, T/C [10]: 12.5%
- viability, T/C [11]: 9.81%
- viability, T/C [12]: 9.9%
- viability, T/C [13]: 41.8%
- viability, T/C [14]: 18.2%
- viability, T/C [15]: 12.3%
- viability, T/C [16]: 8.91%
- viability, T/C [17]: 7%
- viability, T/C [18]: 7.78%
- viability, T/C [19]: 15.9%
- viability, T/C [20]: 10.2%
- viability, T/C [21]: 7.13%
- viability, T/C [22]: 1.63%
- viability, T/C [23]: 0.95%
- viability, T/C [24]: 0.77%
- viability, T/C [25]: 0.37%
- viability, T/C [26]: 0.22%
- viability, T/C [27]: 0.1%
- viability, T/C [28]: 0.05%
- viability, T/C [29]: 0.08%
- viability, T/C [30]: 0.08%
- viability, T/C [31]: 0.12%
- viability, T/C [32]: 0.1%
- viability, T/C [33]: 0.35%
- viability, T/C [34]: 0.06%
- viability, T/C [35]: 2.39%
- viability, T/C [36]: 0.59%
- viability, T/C [37]: 0.05%
- viability, T/C [38]: 0.11%
- viability, T/C [39]: 1.89%
- viability, T/C [40]: 0.11%
- viability, T/C [41]: 0.27%
- viability, T/C [42]: 0.33%
